Here are results for four molecules from ChEMBL document CHEMBL1152316, “Caryophyllenes from a fungal culture of Chrysosporium pilosum” (2009).

Experiment [1] deals with Saccharomyces cerevisiae. Nature of the experiment: Antifungal activity against Saccharomyces cerevisiae PM503 assessed as zone of inhibition after 48 hrs. It counts as functional, organism-based.
In experiment [2] the test system is Saccharomyces cerevisiae. The experiment can be described thus: Antifungal activity against Saccharomyces cerevisiae PM503 after 48 hrs. To be noted: PM503, 48 h. The experiment is classed as functional.

Structures are written as SMILES. Values after ≈ are worked out from the molar mass of the structure shown. Active and inactive are the calls of the source. The calls are words filed in the database; no cut-off is given here.

For the molecule `C/C1=C/[C@H](O)C(=O)[C@@H](CO)[C@@H]2CC(C)(C)[C@H]2CC1`, in the experiment on Saccharomyces cerevisiae [1], the result was inactive.

As for `C/C1=C/C(=O)[C@@H](O)[C@@]2(CO2)[C@@H]2CC(C)(C)[C@H]2CC1`, the result in the experiment on Saccharomyces cerevisiae [1] was inactive.

Turning to `C=C1CC[C@H]2[C@@H](CC2(C)C)[C@H]2CO[C@@](O)(C1)C2=O`, the result with Saccharomyces cerevisiae [1] was inactive.

Broadly, the MIC is the least concentration at which growth counts as inhibited. For the molecule `C/C1=C/C(=O)[C@@H](O)[C@@H](CO)[C@@H]2CC(C)(C)[C@H]2CC1`, the outcome in the experiment with Saccharomyces cerevisiae [1] was inactive. The molecule also registered an MIC against Saccharomyces cerevisiae [2] of 60 µg/mL (≈ 238 µM).
